Source: article PMC3744530, “CTA095, a Novel Etk and Src Dual Inhibitor, Induces Apoptosis in Prostate Cancer Cells and Overcomes Resistance to Src Inhibitors” (PLoS ONE, 2013)

Assays:
[1] = tested on: pEtk, pSrc, pSTAT3, Myc and BCL2 in PC3-AZD20 cells; assay: Western blot of pEtk, pSrc, pStat3, Myc and BCL2; type: cell-based, human; conditions: PC3-AZD20, 10 μM
Description: PC3-AZD20 cells were seeded at 10^6 cells/well in 6 well plates overnight. The cells were treated with AZD0530 or CTA095 at 10 μM. Apoptosis was analyzed using Annexin-V FITC apoptosis detection kit. The mRNA levels of Myc and BCL2 were measured using real-time PCR. pEtk, Etk, pSrc, Src, pStat3, Stat3, Myc and BCL2 levels were measured using the corresponding antibodies through a Western blot.
Figure 12 CTA095 induces apoptosis in Src inhibitor resistant prostate cancer cells through Myc and BCL2 inhibition. PC3-AZD20 (PC3 cell resistant to 20 μM AZD0530) cells were seeded at 10^6 cells/well in 6 well plates overnight. The cells were treated with AZD0530 or CTA095 at 10 μM. Apoptosis was analyzed using Annexin-V FITC apoptosis detection kit (A). The mRNA levels of Myc and BCL2 were measured using real-time PCR (B). pEtk, Etk, pSrc, Src, pStat3, Stat3, Myc and BCL2 levels were measured using the corresponding antibodies through Western blot (C). Columns, mean; bars, standard deviation, n = 3.

[2] = tested on: PC3 cells stably transfected with GFP-LC3; set-up: method as in PMID 20811583; conditions: cited from earlier work
PC3-AZD20 cells = assay: MTT cell viability in Src inhibitor resistant cells; type: cell-based, human; conditions: 72 h
Description: PC3 and PC3-AZD20 (PC3 cell resistant to 20 μM AZD0530, which is from AstraZeneca through MTA with Dr. Chris Evans) cells were seeded at 2000 cells/well in 96 well plates overnight. The cells were treated with AZD0530 or CTA095 at the indicated concentrations. Cell viability was measured using an MTT assay after 72 h.
Figure 11 CTA095 overcomes Src inhibitor resistance in prostate cancer cells. PC3 and PC3-AZD20 (PC3 cell resistant to 20 μM AZD0530) cells were seeded at 2000 cells/well in 96 well plates overnight. The cells were treated with AZD0530 or CTA095 at the indicated concentrations. Cell viability was measured using MTT assay after 72 h. Symbols, mean; bars, standard deviation, n = 3.

CN1CCN(CCOc2cc(OC3CCOCC3)c3c(Nc4c(Cl)ccc5c4OCO5)ncnc3c2)CC1 [AZD0530, reference compound]
pEtk, pSrc, pSTAT3, Myc and BCL2 protein levels [1]: pSrc and pSTAT3, but not c-myc and Bcl-2 were decreased
autophagy in prostate cancer cells [2]: induces autophagy
cell viability / sensitivity of PC3-AZD20 cells (PC3-AZD20 cells): resistant
